Marks after values point to notes of the source that are not given here.

For series [1] the following is noted: cited from earlier work.
In the next series the test system is KM mice. Kind of series: Mouse cough test (ammonia-induced coughing). Type of series: in vivo. The note with it: for Number of Coughs (time): mice; for reduction in the number of coughs at 3 mg/kg: compared with model group; for duration of the cough suppression action / cough suppressing effect compared with the positive compound: 30 mg/kg; for duration of the cough suppression action: 30 to 120 min after administration. The text has this: Compounds of Example 1-24 (synthesized in the inventor's laboratory), positive control drug (gefapixant, batch No: 01030-210326-2-1, purchased from Holder Pharmaceuticals), the compound of Comparative Example 1 (synthesized in the inventor's laboratory).
Healthy adult KM mice, half of them are male and half of them are female, 6 per group, weighing about 28-30 g.
Most of the animal coughing models currently reported in the literatures use mechanical, chemical and electrical stimulations to stimulate the nerves and receptors of the animals to trigger coughing. According to the characteristics of the candidate compounds and the existing similar target compounds for reference, the method of concentrated ammonia induction was initially chosen to establish the cough modeling test in mice.
Preparation of 50% ammonia solution: 2.5 ml of ammonia was dissolved in […] of a 0.9% sodium chloride solution for injection and mixed evenly.
Preparation of a solution of the compound of Comparative Example 1: 9 mg of the compound of Comparative Example 1 was weighed and dissolved in 3 ml of a 0.5% CMC-Na solution, and mixed evenly to prepare a 3 mg/ml solution.
Preparation of a solution of the example compounds: 9 mg of the example compound was weighed and dissolved in 3 ml of a 0.5% CMC-Na solution, and mixed evenly to prepare a 3 mg/ml solution.
Grouping: a positive control group, a Comparative Example 1 group, Example 1 group-Example 24 group, and a model group were set up. Six KM mice were taken from each group and administered by gavage; here, the Comparative Example 1 group was given the compound of Comparative Example 1, the positive control group was given the positive control drug (gefapixant, commercially purchased), the Example groups were given the compounds prepared in the corresponding Examples, with each group given one of three dosages: 30 mg/kg, […], and 3 mg/kg; and the model group was given the same volume of 0.5% CMC-Na solution.
30 min, 60 min or 120 min after administration, the mice were placed in a 500 ml beaker with a cotton ball (weight 100±5 mg) containing 0.3 ml of 50% ammonia.
(1) Judgment criteria of coughing: coughing was manifest in contraction of abdominal muscles or chest contraction, with mouth wide opening and a coughing sound.
(2) The number of coughs (times) within 3 min was recorded with a stopwatch, and the data were statistically analyzed by software, with the data in each group shown in mean±standard deviation. A one-way analysis of variance among the groups was conducted, and P<0.05 was considered a difference having a statistical significance.

A further series concerns SD rats. As to the kind of experiment: Taste disorder test (quinine water versus tap water intake). Type of series: in vivo, rat. To be noted: for effect on the taste sense: 10 mg/kg intravenously, quinine/tap water ratio compared with vehicle group; for Quinine/tap water (%): 10 mg/kg tail intravenous injection, 0-15 min after administration, 0.3 mM quinine hydrochloride water versus tap water. The protocol: Compounds of Examples 1, 9, 12, 15, 16, 24 (synthesized in the laboratory of the present inventor), the positive control drug (gefapixant, batch No: 01030-210326-2-1, purchased from Holder Pharmaceuticals).
0.9% sodium chloride solution for injection, quinine hydrochloride (Quinie, batch No: C12476271)
Healthy adult SD rats, all males, weighing about 280-300 g.
Preparation of 0.3 mM quinine solution: 119.20 mg of quinine hydrochloride was weighed and dissolved in 1000 ml of tap water, and mixed evenly.
Preparation of the test sample solution: 40 mg of a test sample was dissolved in DMSO and a solution of the solubilizer HS-15 was added, mixed evenly, and 16 ml of saline was added to formulate a 2.5 mg/ml solution.
Animal and grouping: male SD rats weighed about 160-180 g each, with 10 of a similar average weight in each group, were housed in seperate cages.
Drinking habit training: each group was given normal drinking water for 30 minutes at 8:30 am and 16:30 pm every day, and no access of water for the rest of the day for 5 days, and two bottles of water were changed every day at the left and right positions.
Administration: with no access to water the night before the experiment, in the following morning the test group was given 4 mL/kg (10 mg/kg) of the test sample by tail intravenous injection, and the model group was given 4 mL/kg (10 mg/kg) of 0.5% HS-15 by intravenous injection.
The animals were allowed to drink freely for 15 min, and the amount of water consumed from the two bottles was measured to the nearest 0.1 ml.
(2) Statistical analysis of the data: the drinking volume of the quinine bitter water and tap water were recorded separately, as well as the percentage of quinine water to the tap water, and the significance of the difference between the groups was determined by ANOVA.

A further series addresses T1, human P2X3 receptor (Homo sapiens, UniProt P56373).
T1 sequence (P56373 1-397): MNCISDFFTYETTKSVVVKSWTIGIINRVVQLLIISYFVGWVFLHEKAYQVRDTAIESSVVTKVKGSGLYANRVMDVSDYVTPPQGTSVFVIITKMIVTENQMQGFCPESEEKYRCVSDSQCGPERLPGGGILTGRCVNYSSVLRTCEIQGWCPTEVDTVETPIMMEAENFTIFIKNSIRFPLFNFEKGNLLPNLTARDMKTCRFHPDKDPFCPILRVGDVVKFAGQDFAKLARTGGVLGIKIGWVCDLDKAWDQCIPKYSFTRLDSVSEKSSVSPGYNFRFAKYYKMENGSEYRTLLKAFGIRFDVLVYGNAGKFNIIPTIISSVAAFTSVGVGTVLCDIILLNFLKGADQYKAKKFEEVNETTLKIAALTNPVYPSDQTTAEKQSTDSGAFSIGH
As to the kind of experiment: In vitro bioactivity evaluation: FLIPR antagonist mode, HEK 293 cells stably transfected with human P2X3 receptor, BZATP agonist.

The mark [2] stands for this setting: 10 mg/kg by gavage, 60 min after administration, coughs within 3 min.
The mark [3] stands for this setting: 30 mg/kg by gavage, 30 min after administration, coughs within 3 min, ammonia-induced.
[4] abbreviates: 30 mg/kg by gavage, 60 min after administration, coughs within 3 min (Table 5).
Where [5] appears, read: 3 mg/kg by gavage, 60 min after administration, coughs within 3 min.
The mark [6] stands for this setting: 30 mg/kg by gavage, 60 min after administration, coughs within 3 min (Table 6).
Setting [7] is: 30 mg/kg by gavage, 120 min after administration, coughs within 3 min.

Description for human P2X3 receptor: Cell culture medium: DMEM high glucose; 10% FBS; 1% PenStrep.
The Petri dish was placed in an incubator for 1-3 minutes or until the cells were digested, 3 mL of a complete medium was then added to terminate the digestion, and the cell density was determined by a cell counter. • 2) After centrifugation at 1000 rpm/min for 5 min, the cells were resuspended in a growth medium and the volume of the suspension was adjusted to reach a cell density of 4×10^5 cells/mL (1×10^4 cells/25 μL). • 3) 10 μL of 5× Matrigel was added into a black microplate, and the microplate was placed in an incubator for 15 min. The microplate was removed and invertedly centrifuged at 300 g/min for 30 s to remove the 5× Matrigel.

On to `COc1cc(C(C)C)c(Oc2cnc(N)nc2N)cc1S(N)(=O)=O` [Positive control, gefapixant, reference compound], for which the primary efficacy endpoint entry in series [1] (15 mg twice a day) is on record as “not met”. Further, the 24-hour cough frequency result in series [1] (45 mg twice a day, Week 12 (COUGH-1) and Week 24 (COUGH-2), compared to placebo) is reported as “statistically significant reduction”. In series [1] (45 mg), the “discontinuation due to adverse events” value is “higher frequency” and the taste-related adverse events result is given as “higher incidence”. Also, the “cough suppressing efficacy at 10 mg/kg” value in the series on KM mice (60 min after administration) is “did not have a significant effect in reducing coughs”. The “Number of Coughs (time)” value in the series on KM mice (setting [2]) came to 38.83 time. The “Number of Coughs (time)” value with KM mice (setting [3]) was 20.33* time. In addition, the “Number of Coughs (time)” value with KM mice (setting [4]) is given as 23.83** time. In the series with SD rats, the “effect on the taste sense” value was “significant effect on the taste sense” and the “Quinine/tap water (%)” value is given as 79.01%**.
Usually IC50 stands for the point on the concentration scale where inhibition reaches its midpoint. Read a low IC50 as higher potency. For `CS(=O)(=O)NC(=O)C1(Cn2c(=O)cc(Nc3ccc(Oc4ccccn4)cc3)n(Cc3ccc(Cl)cc3)c2=O)CC1` [Compound 15], the 50% inhibitory concentration (IC50) at human P2X3 receptor lay in the range of 10.1 to 50 nM. In addition, the “reduction in the number of coughs at 3 mg/kg” value in the series on KM mice (60 min after administration) was “statistically significant (P<0.01) reduction in the number of coughs”. The “cough suppressing efficacy at 10 mg/kg” value in the series with KM mice (60 min after administration) is “improved cough suppressing efficacy than the positive control drug”. Further, the “duration of the cough suppression action” value in the series with KM mice was “significantly prolonged compared with that of the compound of Comparative Example 1”. In the series on KM mice (30 min after administration), the “cough suppressing effect compared with the positive compound” value is recorded as “stronger than that of the positive compound”. For the same molecule, the “Number of Coughs (time)” value is on record as 24.83** time with KM mice (setting [5]); 20.83**^Δ time with KM mice (setting [2]); 18.64** time in the series on KM mice (setting [3]); 16.33** time with KM mice (setting [4]); 16.33** time in the series on KM mice (setting [6]); 23.83**^Δ time with KM mice (setting [7]). Besides, the “effect on the taste sense” value with SD rats is “little or no effect on the taste sense”. Besides, in the series with SD rats, the “Quinine/tap water (%)” value was determined as 40.22%^Δ.
`C[C@@H](Cn1c(=O)cc(Nc2ccc(Oc3ncccc3F)cc2)n(Cc2ccc(Cl)cc2)c1=O)C(=O)NS(C)(=O)=O` [Compound 16, (S)-3-(3-(4-chlorobenzyl)-4-(4-(3-(3-fluoropyridin-2-yl)oxyphenyl)amino)-2,6-dioxo-3,6-dihydropyrimidin-1(2H)yl)-2-methyl-N-(methylsulfonyl)propionamide group]: at human P2X3 receptor, the IC50 is below 10 nM. In the series with KM mice (60 min after administration), the “reduction in the number of coughs at 3 mg/kg” value was “statistically significant (P<0.01) reduction in the number of coughs”. Further, in the series on KM mice (60 min after administration), the “cough suppressing efficacy at 10 mg/kg” value is “improved cough suppressing efficacy than the positive control drug”. In addition, the “duration of the cough suppression action” value in the series with KM mice was “significantly prolonged compared with that of the compound of Comparative Example 1”. The “Number of Coughs (time)” value with KM mice (setting [5]) is listed as 23.81** time; in the series on KM mice (setting [2]) it was 15.13**^Δ time; in the series on KM mice (setting [3]), 19.34** time; in the series on KM mice (setting [4]) it was 16.11** time; in the series with KM mice (setting [6]) it was 16.11** time; in the series with KM mice (setting [7]), 18.13**^Δ time. Also, the “effect on the taste sense” value with SD rats is listed as “little or no effect on the taste sense”. Besides, the “Quinine/tap water (%)” value with SD rats was 42.53%^Δ.
`COC(=O)[C@@H](C)Cn1c(=O)cc(Nc2ccc(Oc3cnccn3)cc2)n(Cc2ccc(Cl)cc2)c1=O` [Compound 1] registered an IC50 on human P2X3 receptor below 10 nM. In addition, in the series with KM mice (30 min after administration), the “cough suppressing effect compared with the positive compound” value was “stronger than that of the positive compound”. In addition, the “Number of Coughs (time)” value with KM mice (setting [3]) is 15.33** time. In the series on SD rats, the “effect on the taste sense” value is recorded as “little or no effect on the taste sense” and the “Quinine/tap water (%)” value is 41.48%^Δ.

(Values after patent US20240391904A1, “DIHYDROPYRIMIDINE BASED COMPOUND, PREPARATION METHOD THEREFOR AND USE OF THEREOF” (CHENGDU SHIBEIKANG BIOMEDICAL TECHNOLOGY CO., LTD., priority 2021, published 2024).)
